Assay results as given in US4981788A, “Novel acetylpolyamine amidohydrolase” (Kyowa Hakko Kogyo Co., Ltd., priority 1987, dated 1991).
“Also recorded” adds a separate entry of the source. Counter-ions that a name gives are not always drawn. Like-named read-outs stand apart in the source and are kept apart here.

Key:
[1] = test system: E1: Enzyme derived from Streptomyces avellaneus; settings: concentration of 1mM; acetylputrescine as substrate; cited from earlier work
[2] = test system: E3: Enzyme derived from Micrococcus luteus; settings: cited from earlier work
[3] = test system: E2: Enzyme derived from Arthrobacter sp.; settings: concentration of 1mM; acetylputrescine as substrate; cited from earlier work
[4] = biological target: T1, acetylpolyamine amidohydrolase (the present enzyme, partially purified product) (Mycoplana ramosa, UniProt Q48935); experiment: Effects of inhibitors and metal ions, partially purified present enzyme; assay type: biochemical, Mycoplana bullata; settings: for inhibition at 1000 µM: read-out: Relative activity in presence of inhibitor/metal ion, the present enzyme; for Inhibition of the present enzyme (in words): partially purified product
T1 construct: novel acetylpolyamine amidohydrolase of the present invention accumulated within the grown cells; made in house; host or cells: Mycoplana (natural producer; cells grown in culture)
T1 sequence (Q48935 1-341): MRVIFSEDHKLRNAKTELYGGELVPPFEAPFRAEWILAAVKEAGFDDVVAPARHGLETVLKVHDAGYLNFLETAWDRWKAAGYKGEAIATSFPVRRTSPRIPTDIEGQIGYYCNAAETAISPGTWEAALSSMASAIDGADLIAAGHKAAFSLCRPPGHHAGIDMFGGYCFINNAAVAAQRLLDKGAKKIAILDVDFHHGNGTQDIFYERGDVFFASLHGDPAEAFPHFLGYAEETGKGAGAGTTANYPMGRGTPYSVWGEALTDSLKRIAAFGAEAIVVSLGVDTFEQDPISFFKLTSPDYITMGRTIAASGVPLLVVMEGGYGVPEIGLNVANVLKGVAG
Method: Activity of the present enzyme (partially purified products) is measured according to the following procedure. That is, 0.1 ml of an enzyme solution is added to a reagent solution consisting of 1.5 ml of 0.1 M phosphate buffer (pH 7.0), 0.05 ml of 50 mM acetylpolyamine, 0.4 U of putrescine oxidase (when acetylputrescine, acetylcadaverine or acetylspermidine is used as substrate) or polyamine oxidase (when acetylspermidine or acetylspermine is used as substrate), 0.5 ml of 2.4 mM 4-aminoantipyrine, 0.5 ml of 42 mM phenol and 20 U of peroxidase. The mixture is incubated at 37° C., and the absorbance of quinoneimine pigment formed at 500 nm is measured.
The effects of various inhibitors and metal ions upon the present enzyme and the other known enzymes were examined using acetylputrescine as substrate.

[5] = biological target: T2, acetylpolyamine amidohydrolase (the present enzyme, product purified to homogeneity) (Mycoplana ramosa, UniProt Q48935); experiment: Effects of various compounds upon enzyme activity, product purified to homogeneity (Method 1); assay type: biochemical, Mycoplana bullata; settings: for activity at 100 µM: read-out: Relative Activity (%) at 0.1 mM
T2 construct: novel acetylpolyamine amidohydrolase of the present invention accumulated within the grown cells; made in house; host or cells: Mycoplana (natural producer)
T2 sequence (Q48935 1-341): T1 sequence (Q48935 1-341)
Source text: [Method 1] (Standard assay)
In this standard method for measuring the activity of acetylpolyamine amidohydrolases, the enzyme being tested is allowed to react with acetylputrescine as substrate to produce putrescine, which is in turn oxidized with putrescine oxidase. Hydrogen peroxide thus formed is then subjected to oxidative condensation with phenol and 4-aminoantipyrine in the presence of horseradish peroxidase to form quinoneimine pigment. The rate of increase in the absorbance of a colored reaction solution at 500 nm is measured with a spectrophotometer.
The above reagents, (b) through (h), were put in a cuvette (d: 1.0 cm) and the mixture was preincubated at 37° C. for 2 minutes. The substrate solution (a) was then added and the resulting mixture was held at 37° C., absorbance at 500 nm was measured over a period of 3 to 5 minutes, and the change in absorbance per minute (ΔODsample) was determined from the linear portion of the plotted curve. For control, the same procedure as above was carried out, using distilled water as reference.
One unit of acetylpolyamine amidohydrolase is defined as its amount necessary to hydrolyze 1 μmole of acetylputrescine at 37° C. for one minute (or the amount necessary to form 0.5 μmole of quinoneimine pigment formed in the method for measuring the enzyme activity described above).
To 50 mM Tris-HCl buffer (pH 7.0) containing the present enzyme, was added each of the compounds being tested to a concentration of 0.1 mM or 1.0 mM. The mixture was incubated at 37° C. for 10 minutes, a sample solution was taken out, and its residual activity was measured according to the procedure described in [Method 1].

[6] = concentration of 1mM, acetylputrescine as substrate
[7] = concentration of 1mM, acetylputrescine as substrate, no addition = 100%
[8] = compound 0.1 mM, 50 mM Tris-HCl pH 7.0, 37° C., 10 minutes, residual activity
[9] = compound 1.0 mM, 50 mM Tris-HCl pH 7.0, 37° C., 10 minutes, residual activity
[10] = compound 1.0 mM, 50 mM Tris-HCl pH 7.0, 37° C., 10 minutes, residual activity, read-out: Relative Activity (%) at 1.0 mM

Row | SMILES | Relative activity in presence of inhibitor/metal ion, E1 [1] [%] | Relative activity in presence of inhibitor/metal ion, E3 [2, 6] [%] | Relative activity in presence of inhibitor/metal ion, E2 [3] [%] | Relative activity in presence of inhibitor/metal ion, the present enzyme [4, 7] [%] | Relative Activity (%) at 1.0 mM [5, 9] [%] | Inhibition of the present enzyme (in words) ([5]; purified to homogeneity) | also measured
1 | [Mn+2] [Mn^2+] | 82 | 50 | 101 | 124 | – | – | –
2 | O=[N+]([O-])[O-].[Ag+] [AgNO3] | – | – | – | – | 41 | inhibited | Relative Activity (%) at 0.1 mM [5, 8]: 107%
3 | O=S(=O)(F)Cc1ccccc1 [Phenylmethanesulfonyl fluoride] | – | – | – | – | 90 | slightly inhibited | Relative Activity (%) at 0.1 mM [5, 8]: 86%
4 | c1ccc(-c2ccccn2)nc1 [a,a'-Dipyridyl] | – | – | – | – | – | – | activity at 1000 µM [5, 10]: 92%
5 | NNC(N)=O [Semicarbazide hydrochloride] | – | – | – | – | – | – | activity at 100 µM [5, 8]: 103%; activity at 1000 µM [5, 10]: 91%
6 | CCN(CC)C(=S)S [DDC, Diethyldithiocarbamate] | – | – | – | – | – | – | inhibition at 1000 µM [4, 7]: 0%; activity at 100 µM [5, 8]: 93%; activity at 1000 µM [5, 10]: 94%
7 | [Cl-].[Cl-].[Mg+2] [MgCl2] | – | – | – | – | 85 | – | Relative Activity (%) at 0.1 mM [5, 8]: 87%
8 | O=C(O)CN(CCN(CC(=O)O)CC(=O)O)CC(=O)O [EDTA · 2Na] | – | – | – | – | – | – | Inhibition of the present enzyme (in words) [5]: no inhibitory action; activity at 1000 µM ([5]; pH 7, read-out: Relative Activity (%) at 1.0 mM): 97%
9 | [Zn+2] [Zn^2+] | 3 | 4 | 32 | 100 | – | inhibited; also recorded: most remarkably | Inhibition of the present enzyme (in words) [4]: hardly inhibited
10 | [N-]=[N+]=[N-].[Na+] [NaN3] | 93 | 98 | 99 | 90 | 95 | – | –
11 | O=C(O)c1cc[c]([Hg][Cl])cc1 [pCMB, -p(Chloromercuri)benzoic acid] | 0 | 98 | 8 | 4 | 90 | slightly inhibited | Relative Activity (%) at 0.1 mM [5, 8]: 107%
12 | [Ni+2] [Ni^2+] | 3 | 33 | 55 | 81 | – | – | Inhibition of the present enzyme (in words) [4]: hardly inhibited
13 | c1cnc2c(c1)ccc1cccnc12 [o-Phenanthroline] | 14 | 33 | 94 | – | – | no inhibitory action | inhibition at 1000 µM [4, 7]: 68%; activity at 1000 µM [5, 10]: 95%
14 | [Cu+2] [Cu^2+] | – | 26 | – | 99 | – | – | –
15 | [Cl-].[Cl-].[Zn+2] [ZnCl2] | – | – | – | – | 22 | – | Relative Activity (%) at 0.1 mM [5, 8]: 1%
16 | [Cl][Ni][Cl] [NiCl2] | – | – | – | – | 90 | – | –
17 | [Cl-].[Cl-].[Co+2] [CoCl2] | – | – | – | – | 105 | – | –
18 | Oc1cccc2cccnc12 [8-Hydroxyquinoline] | – | – | – | – | – | – | Relative activity in presence of inhibitor/metal ion, E3 [2]: 98; Relative activity in presence of inhibitor/metal ion, the present enzyme [4]: 3; Inhibition of the present enzyme (in words) [5]: considerably inhibited; Relative Activity (%) at 0.1 mM ([5]; pH 7): 57%; Relative Activity (%) at 1.0 mM ([5]; pH 7): 66%
19 | [Mg+2] [Mg^2+] | 104 | 99 | 112 | 97 | – | inhibited | –
20 | NO [Hydroxylamine] | – | – | – | 24 | – | – | –
